Measured values published in article PMC7529893, “Structural basis for substrate recognition and chemical inhibition of oncogenic MAGE ubiquitin ligases” (Nature Communications, 2020).
Where two headings read alike, the source gives them in different places.

Molecular target: T1, MAGE-A11:PCF11 interaction (GST-MAGE-A11 MHD and FAM-PCF11_4) (Homo sapiens, UniProt P43364)
T1 construct: GST-MAGE-A11 MHD (human MAGE-A11 MHD amino acid 218-429); made in house; host or cells: E. coli BL21(DE3)
T1 sequence (P43364 218-429): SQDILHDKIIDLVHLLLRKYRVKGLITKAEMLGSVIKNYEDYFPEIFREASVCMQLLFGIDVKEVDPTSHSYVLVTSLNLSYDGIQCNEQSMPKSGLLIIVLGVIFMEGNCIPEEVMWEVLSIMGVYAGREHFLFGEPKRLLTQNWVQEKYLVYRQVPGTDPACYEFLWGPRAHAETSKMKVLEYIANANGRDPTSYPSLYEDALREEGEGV
Experiment: TR-FRET dose response test of compounds for disruption of MAGE-A11:PCF11 binding
Description: The TR-FRET assay buffer with a formula of 50 mM Tris pH 7.5, 20 mM MgCl2, 0.1 mg/ml BSA and 1 mM DTT was freshly prepared before each experiment. All TR-FRET assays were performed in black 384-well plates with 20 µl/well assay volume in the TR-FRET assay buffer at room temperature (~25 °C). All peptides or compounds were solubilized in DMSO. To test the competitive activity of peptides or compounds against the interaction between GST-MAGE-A11 MHD and FAM-PCF11_4 peptide, 10 µl/well peptide or compound at specified concentration was dispensed into a black 384-well low volume plate, followed by 5 µl/well FAM-PCF11_4 (800 nM), 5 µl/well Tb-anti-GST (20 nM), and GST-MAGE-A11 MHD (20 nM). The assay components in each well was then mixed by shaking the plate on an IKA MTS 2/4 digital microtiter plate shaker (IKA Works; Wilmington, NC, USA) for 1 min. The plate was further centrifuged in an Eppendorf 5810 centrifuge with an A-4-62 swing-bucket rotor (Eppendorf AG, Hamburg, Germany) at 201 g for 30 s. The plate was then incubated for 90 min with a lid to avoid light exposure to the assay components. After incubation, the fluorescent emission signals at 520 nm and 490 nm channels of individual wells were measured with a PHERAstar FS plate reader (BMG Labtech; Durham, NC, USA) by using a 340 nm excitation filter, 100 µs delay time, and 200 µs integration time. The TR-FRET fluorescence emission ratio (TR-FRET signal) for each well was presented as 10,000 × 520 nm/490 nm, which was used directly for curve fitting, or further converted to %Inhibition based on the respective positive and negative controls. The graphic software GraphPad Prism 4.81 (GraphPad Software; La Jolla, CA, USA) was used to generate curves and derive IC50 values of tested peptides or compounds, if applicable.
TR-FRET screen for identifying MAGE-A11 small molecule inhibitors was performed as follows. The primary one-concentration screening and subsequent 10 or 20-concentration dose-response tests were accomplished with an automated High Throughput Screening system (HighRes Biosolutions, Beverly, MA)[30]. In the primary screening, 15 µl/well FAM-PCF11_4 (267 nM) was first dispensed with a Multidrop Combi Reagent Dispenser (Thermo Fisher Scientific, Waltham, MA) to black 384-well low-volume assay plates. The plates were spun down with a Velocity11 VSpin microplate centrifuge (Agilent Technologies, Santa Clara, CA). In total, 30 nl/well of 10 mM compound/DMSO solutions, or DMSO alone, were transferred from compound plates (the St. Jude FDA drug and bioactive library, Drug-like library and Lead-like library) or a control plate to the assay plates with a Pin Tool (V&P Scientific, San Diego, CA). The compounds were arrayed in columns 3–12 and columns 15–24 of compound plates. The controls were arrayed in columns 1, 2, 13, and 14 of a compound plate. In all, 5 µl/well Tb-anti-GST (20 nM) and GST-MAGE-A11 (20 nM) or 5 µl/well Tb-anti-GST (20 nM) alone was then dispensed to selected wells with a Multidrop Combi Reagent Dispenser. The final assay volume was 20 µl/well. The final DMSO concentration was 0.25% (v/v) (0.1% (v/v) from the FAM-PCF11_4 DMSO stock solution and 0.15% (v/v) from the compound-DMSO solution or the DMSO for the control wells). The final tested compound concentration was 15 µM. The final FAM-PCF11_4 concentration was 200 nM and the final Tb-anti-GST concentration was 5 nM. The final GST-MAGE-A11 concentration was 5 nM except for those selected positive control wells in which GST-MAGE-A11 was not presented. The plates were then shaken with a big bear shaker (Big Bear Automation, Santa Clara, California) and spun down with the Velocity11 VSpin microplate centrifuge for 20 s. The plates were then incubated at room temperature in a Liconic incubator (Liconic US, Woburn, MA) for 90 min. The TR-FRET signals for individual wells were measured with a PHERAstar FS plate reader. The %Inhibition of each tested inhibitor was calculated by using Eq. 1.

[1] = Supplementary Data 3, 59 quinoline compounds, read-out: TR-FRET IC50
[2] = Dose response TR-FRET screening of nine scaffold groups against MAGE-A11:PCF11, read-out: consensus IC50
[3] = Supplementary Data 4, read-out: TR-FRET, IC50

Row | IC50 [1] | IC50 [2] | SMILES | further results
1 |  | 24.1 µM | COc1cccc(CNCCCNc2ccnc3cc(-c4ccccc4)ccc23)c1O [SJ000311283-1] | 
2 |  | 9.02 µM | FC(F)(F)c1cc(-c2ccc3c(NCCCNCc4cccc5c4OCO5)ccnc3c2)cc(C(F)(F)F)c1 [SJ000311272-1] | 
3 |  | 33.6 µM | COc1cc(Cc2ccc3c(NCCCNCc4cccc(OC)c4O)ccnc3c2)cc(OC)c1 [SJ000311311-1] | 
4 |  | 22.2 µM | c1ccc(-c2ccc3c(NCCCNCc4cccc5c4OCO5)ccnc3c2)cc1 [SJ000311284-1] | 
5 |  | 13.4 µM | COc1ccc(F)cc1CNCCCNc1ccnc2cc(-c3ccc(C(F)(F)F)cc3)ccc12 [SJ000311281-1] | 
6 | > 70 µM |  | c1coc(CNCCCNc2ccnc3cc(-c4cccc5ccccc45)ccc23)c1 [SJ000311274-1, C(CNCc1occc1)CNc2ccnc3cc(ccc23)c4cccc5ccccc45] | 
7 |  | 31.2 µM | c1cc(CNCCCNc2ccnc3cc(-c4cccc5ccccc45)ccc23)c2c(c1)OCO2 [SJ000311276-1] | 
8 |  | 20.6 µM | Fc1ccc(Cc2ccc3c(NCCCNCc4cccc5c4OCO5)ccnc3c2)c(Cl)c1 [SJ000311324-1] | 
9 |  | 17.7 µM | Clc1ccc(Oc2ccc3c(NCCCNCc4cccc5c4OCO5)ccnc3c2)cc1 [SJ000311228-1] | 
10 |  | 12.8 µM | FC(F)(F)c1cccc(Cc2ccc3c(NCCCNCc4cccc5c4OCO5)ccnc3c2)c1 [SJ000311300-1] | 
11 |  | 42.3 µM | Fc1ccc(Cc2ccc3c(NCCCNCc4cccc5c4OCO5)ccnc3c2)cc1 [SJ000311244-1] | 
12 | > 70 µM |  | COc1ccc(C(F)(F)F)cc1CN(CCCCNc1ccnc2cc(Cl)ccc12)Cc1ccccc1 [SJ000520444-1, COc1ccc(cc1CN(CCCCNc2ccnc3cc(Cl)ccc23)Cc4ccccc4)C(F)(F)F] | 
13 |  | 34.9 µM | Clc1ccc2c(NCCCNCc3ccc(-c4ccccc4)cc3)ccnc2c1 [SJ000523064-1] | 
14 | > 70 µM |  | CCCN(CCCNc1ccnc2cc(Cl)ccc12)Cc1ccc2ccccc2c1 [SJ000523040-1, CCCN(CCCNc1ccnc2cc(Cl)ccc12)Cc3ccc4ccccc4c3] | 
15 |  | 23.7 µM | c1cc(CNCCCNc2ccnc3cc(C4CCCCC4)ccc23)c2c(c1)OCO2 [SJ000311264-1] | 
16 |  | 32.4 µM | COc1cccc(CNCCCNc2ccnc3cc(C4CCCCC4)ccc23)c1O [SJ000311263-1] | 
17 |  | 51 µM | COc1cccc(CNCCCNc2ccnc3cc(Cc4ccc(C#N)cc4)ccc23)c1O [SJ000311303-1] | 
18 |  | 16 µM | COc1cccc(CNCCCNc2ccnc3cc(-c4cccc5ccccc45)ccc23)c1O [SJ000311275-1] | 
19 |  | 13.8 µM | COc1cccc(CNCCCNc2ccnc3cc(Cc4c(Cl)cccc4Cl)ccc23)c1O [SJ000311315-1] | 
20 | > 70 µM |  | Cc1cc(C)cc(Cc2ccc3c(NCCCNCc4ccco4)ccnc3c2)c1 [SJ000311318-2, Cc1cc(C)cc(Cc2ccc3c(NCCCNCc4occc4)ccnc3c2)c1] | 
21 |  | 26.3 µM | COc1ccc(F)cc1CNCCCNc1ccnc2cc(CC3CCCCC3)ccc12 [SJ000311253-1] | 

The next lines start with the compound.

Row | SMILES | IC50 [1] | IC50 [2] | further results
22 | FC(F)(F)Oc1cccc(CN(CCCCNc2ccnc3cc(Cl)ccc23)Cc2ccccc2)c1 [SJ000520457-1, FC(F)(F)Oc1cccc(CN(CCCCNc2ccnc3cc(Cl)ccc23)Cc4ccccc4)c1] | > 70 µM |  | 
23 | CCCN(CCCNc1ccnc2cc(C(F)(F)F)ccc12)Cc1ccc[nH]1 [SJ000361255-1, CCCN(CCCNc1ccnc2cc(ccc12)C(F)(F)F)Cc3ccc[nH]3] | > 70 µM |  | 
24 | CCCN(CCCNc1c2ccc(Cl)cc2nc2ccc(OC)cc12)Cc1ccc2[nH]ccc2c1 [SJ000522732-2, CCCN(CCCNc1c2ccc(Cl)cc2nc3ccc(OC)cc13)Cc4ccc5[nH]ccc5c4] | > 70 µM |  | 
25 | Clc1ccc2c(NCCCCN(Cc3ccccc3)Cc3ccc4[nH]ccc4c3)ccnc2c1 [SJ000520434-1, Clc1ccc2c(NCCCCN(Cc3ccccc3)Cc4ccc5[nH]ccc5c4)ccnc2c1] | 23.4 µM |  | 
26 | CCC(C)CN(CCCCNc1ccnc2cc(Cl)ccc12)Cc1ccccc1 (stereo not shown) [SJ000361208-2, CCC(C)CN(CCCCNc1ccnc2cc(Cl)ccc12)Cc3ccccc3] | > 70 µM |  | 
27 | CCCN(CCCNc1ccnc2cc(C(F)(F)F)ccc12)CC1CCCCC1 [SJ000361268-1, CCCN(CCCNc1ccnc2cc(ccc12)C(F)(F)F)CC3CCCCC3] | > 70 µM |  | 
28 | C=CCn1c(=O)c2c(nc(-c3ccccc3)n2C)n(C)c1=O [SJ000832270-1] |  | > 70 µM | 
29 | O=C1C(Cl)=C(NC(=O)C(F)(F)F)C(=O)c2ccccc21 [SJ000024928-1] |  | 9.87 µM | 
30 | Fc1ccc(CN(CCCCNc2ccnc3cc(Cl)ccc23)Cc2ccccc2)cc1 [SJ000522725-1, Fc1ccc(CN(CCCCNc2ccnc3cc(Cl)ccc23)Cc4ccccc4)cc1] | > 70 µM |  | 
31 | c1ccc(-c2ccc3c(NCCCNCc4cccc5c4OCO5)ccnc3c2)cc1 [SJ000311284-01] |  |  | IC50 [3]: 20.6 µM
32 | COc1ccc(F)cc1CNCCCNc1ccnc2cc(-c3ccc(C(F)(F)F)cc3)ccc12 [SJ000311281-01] |  |  | IC50 [3]: 5.58 µM
33 | CCCN(CCCNc1ccnc2cc(Cl)ccc12)Cc1ccc2[nH]ccc2c1 [SJ000522746-2, CCCN(CCCNc1ccnc2cc(Cl)ccc12)Cc3ccc4[nH]ccc4c3] | 2.8 µM |  | 
34 | COc1ccc2cc(C3Nc4ccccc4C(=O)N3CCCN3CCOCC3)ccc2c1 (stereo not shown) [SJ000803763-1] |  | 67.4 µM | 
35 | COc1cc2nc(N3CCN(C(=O)C4COc5ccccc5O4)CC3)nc(N)c2cc1OC (stereo not shown) [SJ000113084-10] |  | 57.1 µM | 
36 | CC(C)(C)CCN(CCCCNc1ccnc2cc(Cl)ccc12)Cc1ccccc1 [SJ000357537-2, CC(C)(C)CCN(CCCCNc1ccnc2cc(Cl)ccc12)Cc3ccccc3] | > 70 µM |  | 
37 | Cc1ccc(NC2=C(N)C(=O)c3ccccc3C2=O)cc1 [SJ000562618-1] |  | 60.6 µM | 
38 | COc1cccc(-c2nc(S(=O)(=O)c3ccc(C)cc3)c(N3CCOCC3)o2)c1 [SJ000038123-1] |  | 17.4 µM | 
39 | CCCCCn1c(-c2ccc(F)c(Br)c2)nc2c1c(=O)[nH]c(=O)n2CCCC [SJ000378900-1] |  | 2.64 µM | 
40 | FC(F)(F)c1ccc(-c2ccc3c(NCCCNCc4ccco4)ccnc3c2)cc1 [SJ000311278-1, FC(F)(F)c1ccc(cc1)c2ccc3c(NCCCNCc4occc4)ccnc3c2] | 22.7 µM |  | 
41 | CC1CN(c2oc(-c3ccccc3F)nc2S(=O)(=O)c2ccc(F)cc2)CC(C)O1 (stereo not shown) [SJ000329067-1] |  | 27.3 µM | 
42 | O=C1c2ccccc2NC(c2ccc(F)cc2F)N1CCCN1CCOCC1 (stereo not shown) [SJ000795275-1] |  | 67.8 µM | 
43 | Clc1ccc2c(NCCCCN(Cc3ccccc3)CC3CCCCC3)ccnc2c1 [SJ000361194-2, Clc1ccc2c(NCCCCN(CC3CCCCC3)Cc4ccccc4)ccnc2c1] | > 70 µM |  | 
44 | Cc1ccc(S(=O)(=O)c2nc(-c3ccc(F)cc3)oc2N2CCOCC2)cc1 [SJ000230854-1] |  | 11.7 µM | 
45 | CCC(COC(C)=O)NC1=C(Cl)C(=O)c2ccccc2C1=O (stereo not shown) [SJ000149466-1] |  | 17.2 µM | 
46 | CCCS(=O)(=O)N1CCN(Cc2ccc3c(c2)c2ccccc2n3CC)CC1 [SJ000167951-1] |  | 19.2 µM | 
